The values below come from the supplement of paper PMC10307832.

What all share (assay): relative viability (nuclei count vs DMSO), 5 days (fraction); higher = more cells survive
Compound in the assay “Etoposide + Alpelisib”: COc1cc([C@@H]2c3cc4c(cc3[C@@H](O[C@@H]3O[C@@H]5CO[C@@H](C)O[C@H]5[C@H](O)[C@H]3O)[C@H]3COC(=O)[C@H]23)OCO4)cc(OC)c1O [Etoposide] + Cc1nc(NC(=O)N2CCC[C@H]2C(N)=O)sc1-c1ccnc(C(C)(C)C(F)(F)F)c1 [Alpelisib] (partner 2 µM)
The method, boiled down: (§1)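 Lung cancer cell lines were pin-tool dosed in 1536-well plates on the day after seeding, with either a lone drug or a fixed anchor-drug dose plus five library-drug doses (not always all listed) in √10 steps. Nuclei were counted on 4× images after 5 days. Relative viability is the ratio of treated-well to vehicle-well nuclei counts, with each value a median of duplicate plates.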

Compound in the assay “Etoposide + Tozasertib”: COc1cc([C@@H]2c3cc4c(cc3[C@@H](O[C@@H]3O[C@@H]5CO[C@@H](C)O[C@H]5[C@H](O)[C@H]3O)[C@H]3COC(=O)[C@H]23)OCO4)cc(OC)c1O [Etoposide] + Cc1cc(Nc2cc(N3CCN(C)CC3)nc(Sc3ccc(NC(=O)C4CC4)cc3)n2)n[nH]1 [Tozasertib] (partner 0.1 µM)
Summed up:
as §1

Compound in the assay “Etoposide + Phenformin”: COc1cc([C@@H]2c3cc4c(cc3[C@@H](O[C@@H]3O[C@@H]5CO[C@@H](C)O[C@H]5[C@H](O)[C@H]3O)[C@H]3COC(=O)[C@H]23)OCO4)cc(OC)c1O [Etoposide] + N=C(N)NC(=N)NCCc1ccccc1 [Phenformin] (partner 250 µM)
The method, boiled down:
as §1

Compound in the assay “Etoposide + Palbociclib”: COc1cc([C@@H]2c3cc4c(cc3[C@@H](O[C@@H]3O[C@@H]5CO[C@@H](C)O[C@H]5[C@H](O)[C@H]3O)[C@H]3COC(=O)[C@H]23)OCO4)cc(OC)c1O [Etoposide] + CC(=O)c1c(C)c2cnc(Nc3ccc(N4CCNCC4)cn3)nc2n(C2CCCC2)c1=O [Palbociclib] (partner 0.5 µM)
The method, boiled down: as §1

On to ABC-1, for which the relative viability in the assay with Etoposide + Alpelisib (first compound 0.01 µM) came out at 1.03; with Etoposide + Alpelisib (first compound 0.03162 µM) it was 1.1; with Etoposide + Alpelisib (first compound 0.1 µM) it was 1.02; in the assay with Etoposide + Alpelisib (first compound 0.3162 µM) it was 0.577; with Etoposide + Alpelisib (first compound 1 µM) it was 0.243; with Etoposide + Tozasertib (first compound 0.01 µM) it was 0.176. In addition, the relative viability with Etoposide + Tozasertib (first compound 0.03162 µM) is 0.202; with Etoposide + Tozasertib (first compound 0.1 µM), 0.186; with Etoposide + Tozasertib (first compound 0.3162 µM), 0.199; with Etoposide + Tozasertib (first compound 1 µM), 0.195; in the assay with Etoposide + Phenformin (first compound 0.01 µM), 0.239; with Etoposide + Phenformin (first compound 0.03162 µM), 0.244. The relative viability with Etoposide + Phenformin (first compound 0.1 µM) stood at 0.241; with Etoposide + Phenformin (first compound 0.3162 µM), 0.201; in the assay with Etoposide + Phenformin (first compound 1 µM) it was 0.171; with Etoposide + Palbociclib (first compound 0.01 µM) it was 0.572; in the assay with Etoposide + Palbociclib (first compound 0.03162 µM), 0.71; with Etoposide + Palbociclib (first compound 0.1 µM), 0.529. Besides, the relative viability in the assay with Etoposide + Palbociclib (first compound 0.3162 µM) came to 0.515; in the assay with Etoposide + Palbociclib (first compound 1 µM), 0.419.
For NCI-H1666, the relative viability with Etoposide + Alpelisib (first compound 0.01 µM) was found to be 0.929; in the assay with Etoposide + Alpelisib (first compound 0.03162 µM), 0.931; in the assay with Etoposide + Alpelisib (first compound 0.1 µM), 0.69; with Etoposide + Alpelisib (first compound 0.3162 µM) it was 0.315; with Etoposide + Alpelisib (first compound 1 µM), 0.28; with Etoposide + Tozasertib (first compound 0.01 µM), 0.551. For the same cell line, the relative viability in the assay with Etoposide + Tozasertib (first compound 0.03162 µM) stood at 0.592; with Etoposide + Tozasertib (first compound 0.1 µM), 0.485; with Etoposide + Tozasertib (first compound 0.3162 µM), 0.356; in the assay with Etoposide + Tozasertib (first compound 1 µM) it was 0.372; in the assay with Etoposide + Phenformin (first compound 0.01 µM) it was 0.513; with Etoposide + Phenformin (first compound 0.03162 µM), 0.571. For the same cell line, the relative viability with Etoposide + Phenformin (first compound 0.1 µM) was 0.507; with Etoposide + Phenformin (first compound 0.3162 µM) it was 0.398; with Etoposide + Phenformin (first compound 1 µM), 0.363; in the assay with Etoposide + Palbociclib (first compound 0.01 µM), 0.618; with Etoposide + Palbociclib (first compound 0.03162 µM) it was 0.639; with Etoposide + Palbociclib (first compound 0.1 µM) it was 0.662. The relative viability with Etoposide + Palbociclib (first compound 0.3162 µM) came to 0.592; in the assay with Etoposide + Palbociclib (first compound 1 µM) it was 0.506.
Turning to NCI-H1993, the relative viability with Etoposide + Alpelisib (first compound 0.01 µM) came out at 0.741; in the assay with Etoposide + Alpelisib (first compound 0.03162 µM), 0.719; in the assay with Etoposide + Alpelisib (first compound 0.1 µM), 0.649; in the assay with Etoposide + Alpelisib (first compound 0.3162 µM), 0.624; with Etoposide + Alpelisib (first compound 1 µM), 0.533; in the assay with Etoposide + Tozasertib (first compound 0.01 µM) it was 0.634. Also, the relative viability with Etoposide + Tozasertib (first compound 0.03162 µM) stood at 0.506; with Etoposide + Tozasertib (first compound 0.1 µM) it was 0.576; with Etoposide + Tozasertib (first compound 0.3162 µM), 0.495; with Etoposide + Tozasertib (first compound 1 µM), 0.55; with Etoposide + Phenformin (first compound 0.01 µM), 0.502; with Etoposide + Phenformin (first compound 0.03162 µM), 0.571. For the same cell line, the relative viability with Etoposide + Phenformin (first compound 0.1 µM) was found to be 0.528; in the assay with Etoposide + Phenformin (first compound 0.3162 µM), 0.51; with Etoposide + Phenformin (first compound 1 µM) it was 0.412; in the assay with Etoposide + Palbociclib (first compound 0.03162 µM), 0.773; with Etoposide + Palbociclib (first compound 0.1 µM), 0.481; with Etoposide + Palbociclib (first compound 0.3162 µM), 0.659. Further, the relative viability in the assay with Etoposide + Palbociclib (first compound 1 µM) amounted to 0.482.
Take NCI-H1975: the relative viability in the assay with Etoposide + Alpelisib (first compound 0.01 µM) was determined as 0.621; with Etoposide + Alpelisib (first compound 0.03162 µM), 0.822; in the assay with Etoposide + Alpelisib (first compound 0.1 µM), 0.693; with Etoposide + Alpelisib (first compound 0.3162 µM) it was 0.56; with Etoposide + Alpelisib (first compound 1 µM), 0.273; in the assay with Etoposide + Tozasertib (first compound 0.01 µM) it was 0.721. Further, the relative viability in the assay with Etoposide + Tozasertib (first compound 0.03162 µM) came to 0.67; with Etoposide + Tozasertib (first compound 0.1 µM) it was 0.785; with Etoposide + Tozasertib (first compound 0.3162 µM) it was 0.495; with Etoposide + Tozasertib (first compound 1 µM), 0.197; in the assay with Etoposide + Phenformin (first compound 0.01 µM) it was 0.398; with Etoposide + Phenformin (first compound 0.03162 µM), 0.486. Moreover, the relative viability with Etoposide + Phenformin (first compound 0.1 µM) amounted to 0.382; in the assay with Etoposide + Phenformin (first compound 0.3162 µM), 0.293; with Etoposide + Phenformin (first compound 1 µM), 0.17; with Etoposide + Palbociclib (first compound 0.01 µM), 0.548; with Etoposide + Palbociclib (first compound 0.03162 µM), 0.665; with Etoposide + Palbociclib (first compound 0.1 µM) it was 0.521. In addition, the values for the relative viability with Etoposide + Palbociclib (first compound 0.3162 µM) and in the assay with Etoposide + Palbociclib (first compound 1 µM) were 0.331 and 0.281, respectively.
As to HCC-44, the relative viability with Etoposide + Alpelisib (first compound 0.01 µM) was determined as 0.635; with Etoposide + Alpelisib (first compound 0.03162 µM), 0.89; in the assay with Etoposide + Alpelisib (first compound 0.1 µM), 0.857; in the assay with Etoposide + Alpelisib (first compound 0.3162 µM) it was 0.569; with Etoposide + Alpelisib (first compound 1 µM), 0.323; with Etoposide + Tozasertib (first compound 0.01 µM), 0.759. Also, the relative viability in the assay with Etoposide + Tozasertib (first compound 0.03162 µM) was 0.886; in the assay with Etoposide + Tozasertib (first compound 0.1 µM), 1.11; with Etoposide + Tozasertib (first compound 0.3162 µM), 0.57; with Etoposide + Tozasertib (first compound 1 µM), 0.317; with Etoposide + Phenformin (first compound 0.01 µM), 0.215; in the assay with Etoposide + Phenformin (first compound 0.03162 µM), 0.156. The relative viability with Etoposide + Phenformin (first compound 0.1 µM) was found to be 0.134; with Etoposide + Phenformin (first compound 0.3162 µM) it was 0.198; with Etoposide + Phenformin (first compound 1 µM) it was 0.112; in the assay with Etoposide + Palbociclib (first compound 0.01 µM), 0.99; with Etoposide + Palbociclib (first compound 0.03162 µM), 0.94; with Etoposide + Palbociclib (first compound 0.1 µM), 1.02. Moreover, the figures for the relative viability in the assay with Etoposide + Palbociclib (first compound 0.3162 µM) and with Etoposide + Palbociclib (first compound 1 µM) were 0.947 and 0.701, respectively.
